Results as given in patent US20250326753A1, “DUAL CXCR4-BTK INHIBITORS” (X4 Pharmaceuticals, Inc., priority 2022, published 2025).
Where two headings read alike, the source gives them in different places.

Columns and labels:
[1] = molecular target: T1, MINK1 (Homo sapiens, UniProt Q8N4C8); assay: PanQinase kinase panel: MINK1; format: biochemical; settings: read-out: INHIBITORY EFFECT @ 1 uM: MINK1
T1 construct: purchased Reaction Biology Europe GmbH
Procedure: (§1) Screening procedures were performed in accordance with the company's on-line protocol [accessed on-line Mar.
(§2) For each kinase, the median value of the cpm of three wells was defined as “low control” (n=3). This value reflects unspecific binding of radioactivity to the plate in the absence of a protein kinase but in the presence of the substrate. Additionally, for each kinase the median value of the cpm of three other wells was taken as the “high control,” i.e. full activity in the absence of any inhibitor (n=3). The difference between high and low control of each enzyme was taken as 100% activity.
(§3) As part of the data evaluation the low control of each kinase was subtracted from the high control value as well as from their corresponding “compound values”. The residual activity (in %) for each compound well was calculated by using the following formula: Res. Activity (%)=100×[(signal of compound−low control)/(high control−low control)].

[2] = molecular target: T2, TXK (Homo sapiens, UniProt P42681); assay: PanQinase kinase panel: TXK; format: biochemical; settings: read-out: INHIBITORY EFFECT @ 1 uM: TXK
T2 construct: purchased Reaction Biology Europe GmbH
T2 sequence (P42681 1-527): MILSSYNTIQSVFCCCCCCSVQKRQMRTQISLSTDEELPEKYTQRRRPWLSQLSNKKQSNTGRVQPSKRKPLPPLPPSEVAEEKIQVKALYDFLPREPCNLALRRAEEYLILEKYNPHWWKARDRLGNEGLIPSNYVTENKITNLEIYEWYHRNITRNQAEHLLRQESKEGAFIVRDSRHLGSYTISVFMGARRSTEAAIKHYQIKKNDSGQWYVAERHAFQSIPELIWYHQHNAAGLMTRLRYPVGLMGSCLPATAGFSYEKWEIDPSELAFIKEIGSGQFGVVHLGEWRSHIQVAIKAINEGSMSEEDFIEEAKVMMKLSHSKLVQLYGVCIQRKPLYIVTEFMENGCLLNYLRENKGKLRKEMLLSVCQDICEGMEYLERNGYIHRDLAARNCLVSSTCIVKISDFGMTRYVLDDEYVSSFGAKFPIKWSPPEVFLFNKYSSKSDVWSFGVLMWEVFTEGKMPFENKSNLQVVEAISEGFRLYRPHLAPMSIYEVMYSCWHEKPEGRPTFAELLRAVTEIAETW
Procedure: as §1, §2, §3

[3] = molecular target: T3, MST1 (Homo sapiens, UniProt Q13043); assay: PanQinase kinase panel: MST1; format: biochemical; settings: read-out: INHIBITORY EFFECT @ 1 uM: MST1
T3 construct: purchased Reaction Biology Europe GmbH
T3 sequence (Q13043 1-487): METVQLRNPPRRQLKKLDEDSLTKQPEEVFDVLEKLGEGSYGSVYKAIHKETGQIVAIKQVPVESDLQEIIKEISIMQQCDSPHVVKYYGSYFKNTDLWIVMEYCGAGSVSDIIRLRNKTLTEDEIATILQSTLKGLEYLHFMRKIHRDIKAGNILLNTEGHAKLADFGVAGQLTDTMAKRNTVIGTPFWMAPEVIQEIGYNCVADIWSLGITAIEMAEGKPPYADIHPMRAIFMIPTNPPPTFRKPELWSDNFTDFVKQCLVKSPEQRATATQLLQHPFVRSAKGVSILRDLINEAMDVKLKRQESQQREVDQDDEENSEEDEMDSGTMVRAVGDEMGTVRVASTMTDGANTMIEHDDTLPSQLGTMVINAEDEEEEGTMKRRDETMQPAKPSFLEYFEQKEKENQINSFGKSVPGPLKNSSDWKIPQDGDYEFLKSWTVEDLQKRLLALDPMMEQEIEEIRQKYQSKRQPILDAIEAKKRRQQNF
Procedure: as §1, §2, §3

[4] = molecular target: T4, CSK (Homo sapiens, UniProt P41240); assay: PanQinase kinase panel: CSK; format: biochemical; settings: read-out: INHIBITORY EFFECT @ 1 uM: CSK
T4 construct: purchased Reaction Biology Europe GmbH
Procedure: as §1, §2, §3

[5] = molecular target: T5, BRK (Homo sapiens, UniProt Q13882); assay: PanQinase kinase panel: BRK; format: biochemical; settings: read-out: INHIBITORY EFFECT @ 1 uM: BRK
T5 construct: purchased Reaction Biology Europe GmbH
Procedure: as §1, §2
As part of the data evaluation the low control of each kinase was subtracted from the high control value as well as from their corresponding “compound values”.

[6] = tested on: U-87 MG; assay: Glioblastoma multiforme cell proliferation assay (CellTiter Glo), U-87 MG; format: cell-based; settings: Homo sapiens; for Emax: read-out: GBM-U87MG Cell Proliferation Emax %
Procedure: Inhibition of glioblastoma multiforme cell proliferation by compounds of the present invention was evaluated in U-87 MG (ATCC; Cat. No. HTB-14; Lot. No. 5018014) and T98G (ATCC; Cat. No. CRL-1690; Lot. No. 58267513) cell lines. These are adherent cell lines isolated from glioblastoma multiforme/malignant glioma, which express both CXCR4 and BTK (see Zhou et al. 2002 and Yue et al. 2017).
Cell viability was analyzed with the CellTiter Glo Cell assay kit ([…], Cat. No. G7573, Lot. No. 0000474103), according to the manufacturer's instruction.
U-87 MG and T98G cells were seeded onto 384-well opaque-walled clear bottom plates (Corning, Cat. No. 3765, Lot. No. 34319047) in EMEM (Invitrogen, Cat. No. 11095-080; Lot. No. 2276656) supplemented with 10% FBS (Invitrogen, Cat. No. 10099-141C, Lot. No. 2145169CP), at a seeding density of 1000 or 1200 cells per well, respectively, and then incubated in 5% CO2 at 37° C. overnight.
Compounds were prepared as stock solutions of 30 mM in DMSO (Sigma, Cat. No. 276855-1L. Lot. No. SHBL5610). Compounds were added to the cells, with 10 dose points in duplicates, in 3-fold dilution from a top concentration of 30 μM (final DMSO concentration […]), and incubated in 5% CO2 at 37° C. for 96 hr.
The 384-well plates were equilibrated at room temperature for approximately 30 min. 25 μl of CellTiter-Glo® Reagent was added to each well and mixed for 10 min on an orbital shaker to induce cell lysis. The 384-well plates were incubated at room temperature for 10 min to stabilize luminescent signal. Luminescence was detected on a PerkinElmer EnVision Multimode Plate Reader (measurement time 0.1s) as relative luminescence units (RLU).

[7] = Table 6A, cell viability, 96 hr, read-out: U-87 MG IC50

T1 sequence (Q8N4C8 whole entry): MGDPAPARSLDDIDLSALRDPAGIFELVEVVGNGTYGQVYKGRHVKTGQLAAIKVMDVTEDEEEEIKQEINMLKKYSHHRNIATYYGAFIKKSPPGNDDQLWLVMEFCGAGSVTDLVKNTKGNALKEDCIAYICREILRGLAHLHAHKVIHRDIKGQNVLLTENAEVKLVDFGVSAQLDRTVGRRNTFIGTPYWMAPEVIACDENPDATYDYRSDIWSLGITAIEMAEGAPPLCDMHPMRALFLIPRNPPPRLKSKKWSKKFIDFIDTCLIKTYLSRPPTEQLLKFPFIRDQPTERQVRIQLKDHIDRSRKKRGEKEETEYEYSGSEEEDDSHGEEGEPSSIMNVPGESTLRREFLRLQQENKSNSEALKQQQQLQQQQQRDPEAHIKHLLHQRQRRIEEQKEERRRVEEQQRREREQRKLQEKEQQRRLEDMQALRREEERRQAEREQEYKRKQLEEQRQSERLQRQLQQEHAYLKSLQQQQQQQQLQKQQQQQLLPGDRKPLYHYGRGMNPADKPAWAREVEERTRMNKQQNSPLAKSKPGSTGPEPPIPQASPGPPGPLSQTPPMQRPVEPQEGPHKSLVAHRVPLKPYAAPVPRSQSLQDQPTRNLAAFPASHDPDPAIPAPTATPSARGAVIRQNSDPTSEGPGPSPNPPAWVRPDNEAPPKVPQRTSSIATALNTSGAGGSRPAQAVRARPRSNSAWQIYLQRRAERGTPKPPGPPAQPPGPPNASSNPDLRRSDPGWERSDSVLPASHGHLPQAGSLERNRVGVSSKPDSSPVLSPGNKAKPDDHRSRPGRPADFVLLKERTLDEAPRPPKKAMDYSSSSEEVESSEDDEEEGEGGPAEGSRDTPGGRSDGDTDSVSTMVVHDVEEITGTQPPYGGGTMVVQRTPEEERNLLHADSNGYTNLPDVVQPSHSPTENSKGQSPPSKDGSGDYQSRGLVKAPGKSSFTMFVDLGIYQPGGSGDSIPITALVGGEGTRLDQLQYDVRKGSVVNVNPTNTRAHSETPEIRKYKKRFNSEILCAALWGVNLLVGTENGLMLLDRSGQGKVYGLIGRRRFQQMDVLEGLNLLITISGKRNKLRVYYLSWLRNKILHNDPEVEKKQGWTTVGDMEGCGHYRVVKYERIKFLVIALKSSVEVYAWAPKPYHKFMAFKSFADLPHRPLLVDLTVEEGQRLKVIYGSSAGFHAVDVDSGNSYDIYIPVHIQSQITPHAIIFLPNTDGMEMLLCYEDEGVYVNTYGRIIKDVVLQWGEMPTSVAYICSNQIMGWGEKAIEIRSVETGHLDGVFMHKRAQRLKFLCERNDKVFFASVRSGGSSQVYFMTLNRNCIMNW
T5 sequence (Q13882 whole entry): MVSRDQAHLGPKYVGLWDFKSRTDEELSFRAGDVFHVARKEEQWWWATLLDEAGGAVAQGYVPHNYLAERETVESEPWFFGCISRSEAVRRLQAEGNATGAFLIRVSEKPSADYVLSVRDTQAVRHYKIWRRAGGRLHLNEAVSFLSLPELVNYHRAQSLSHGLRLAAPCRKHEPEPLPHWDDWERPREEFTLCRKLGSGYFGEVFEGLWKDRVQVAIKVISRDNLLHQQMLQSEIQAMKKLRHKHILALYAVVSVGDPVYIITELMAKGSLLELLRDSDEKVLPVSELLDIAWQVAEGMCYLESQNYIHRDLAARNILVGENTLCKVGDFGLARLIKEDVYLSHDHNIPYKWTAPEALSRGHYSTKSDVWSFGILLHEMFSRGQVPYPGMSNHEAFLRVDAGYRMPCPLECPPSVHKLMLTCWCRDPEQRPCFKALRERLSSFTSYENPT

| IC50 ([6]; Table 6B, read-out: GBM-U87MG Cell Proliferation IC50) [µM] | IC50 [6, 7] [µM] | SMILES | inhibition at 1 µM [1] [%] | inhibition at 1 µM [2] [%] | inhibition at 1 µM [3] [%] | inhibition at 1 µM [4] [%] | inhibition at 1 µM [5] [%] | Emax ([6]; Table 6B) [%] | IC50 ([6]; read-out: GBM-U87MG Cell Proliferation IC50 uM) [µM] |
| --- | --- | --- | --- | --- | --- | --- | --- | --- | --- |
|  |  | O=C(c1ccc(Oc2ccccc2)cc1Cl)c1c[nH]c2ncnc(N[C@@H]3CC[C@@H](CO)OC3)c12 [ARQ-531, (2-chloro-4-phenoxyphenyl) (4-(((3R,6S)-6-(hydroxymethyl)tetrahydro-2H-pyran-3-yl)amino)-7H-pyrrolo[2,3-d]pyrimidin-5-yl) methanone] | 50 to 69 | 90 to 100 | 70 to 89 | 90 to 100 |  |  |  |
|  |  | Cc1cccnc1[C@H]1CCC[C@@H](c2ncccc2C)N1CCN1CCN(C(=O)c2ccc(-c3cc4c(-c5cccc(NC(=O)c6ccccc6)c5C)ncnc4[nH]3)cc2)CC1 [Compound I-10, N-(3-(6-(4-(4-(2-((2R,6S)-2,6-bis(3-methylpyridin-2-yl)piperidin-1-yl)ethyl)piperazine-1-carbonyl)phenyl)-7H-pyrrolo[2,3-d]pyrimidin-4-yl)-2-methylphenyl)benzamide] | < 50 | < 50 | < 50 | < 50 | < 50 | 101 | 0.76 |
| 0.66 |  | Cc1cc(-c2ccnc(Nc3cnn(CCN4[C@@H](c5ncccc5C)CCC[C@H]4c4ncccc4C)c3)n2)ccc1CNC(=O)N1CC(OC(C)C)C1 [Compound I-11] |  |  |  |  |  | 96 |  |
|  | 1.3 | Cc1cccnc1[C@H]1CCC[C@@H](c2ncccc2C)N1CCCCNC(=O)[C@@H]1CC[C@@H](Nc2ncnc3[nH]cc(C(=O)c4ccc(Oc5ccccc5)cc4Cl)c23)CO1 [Compound I-16] |  |  |  |  |  |  |  |
|  | 1.2 | Cc1cccnc1[C@H]1CCC[C@@H](c2ncccc2C)N1CCCCNC(=O)OC[C@@H]1CC[C@@H](Nc2ncnc3[nH]cc(C(=O)c4ccc(Oc5ccccc5)cc4Cl)c23)CO1 [Compound I-18] |  |  |  |  |  |  |  |
|  |  | COc1ccc(F)cc1C(=O)NCc1ccc(-c2nn([C@@H](C)C(F)(F)F)c(N)c2C(N)=O)cc1 [LOXO-305, pirtobrutinib] | < 50 | 50 to 69 | < 50 | 70 to 89 | 70 to 89 |  |  |
|  |  | C=CC(=O)N1CCC([C@@H]2CCNc3c(C(N)=O)c(-c4ccc(Oc5ccccc5)cc4)nn32)CC1 [Zanubrutinib, (7S)-2-(4-phenoxyphenyl)-7-(1-prop-2-enoylpiperidin-4-yl)-4,5,6,7-tetrahydropyrazolo[1,5-a]pyrimidine-3-carboxamide] | < 50 | 90 to 100 | < 50 |  | 90 to 100 |  |  |
